Test results from US20060211764A1, “Cell activator, process for producing cell activator and apparatus therefor” (priority 2002, published 2006).

Experiments:
[1] = system: pulmonary cancer metastasis lymphoma; assay: Administration to a human patient, pulmonary cancer metastasis lymphoma; assay type: in vivo; conditions: person; 15 g/day for 180 days
lipid metabolism system = assay: Effects of CPL ingestion on lipid metabolism; assay type: in vivo
diarrhea = assay: Administration to calves, diarrhea; assay type: in vivo, bovine
Description: Diarrhea frequently occurred in calves when changing to the milk substitute, which is thought to inhibit normal development of the calves. Then farmers may suffer a serious loss.

[2] = Administration to bovines antepartum; assay type: in vivo, bovine
Description: From 3 to 5 days before expected date of delivery, 50 g/day of CPL administration was initiated.

[3] = Blood screening and biochemical examination of blood in bovines given CPL; assay type: in vivo, bovine
leukemia = assay: Administration to human patients, leukemia; assay type: in vivo; conditions: person
bladder cancer = assay: Administration to human patients, bladder cancer; assay type: in vivo
[4] = system: diabetes/rheumatism/hypertension; assay: Administration to a human patient, diabetes/rheumatism/hypertension; assay type: in vivo; conditions: person; 15 g/day for 30 days, then up to 20 g/day
cervical malign lymphoma = assay: Administration to a human patient, cervical malign lymphoma; assay type: in vivo; conditions: person; 20 g/day for 360 days
uterine/ovarian cancer = assay: Administration to a human patient, uterine/ovarian cancer with ileus; assay type: in vivo
Procedure: Person, two years ago, the uterus was extirpated, the ovary and fallopian duct were resected and chemotherapy was performed 3 times. During hospitalization, an ileus tube was inserted due to an ileus. Then intestinal liquid and gas were emitted. A central nutrition tube was inserted into the right subclavian vein because oral ingestion was impossible. An artificial anus and urinary duct tube were attached due to a tumor in the left abdomen. […] Cancerous pain ameliorated and the ingestion of solid food from 3/10- 5/10- 7/10-whole porridge was enabled. Discharged from the hospital 3 months later.

cancer cells = assay: Effects on cancer cells; assay type: cell-based
Description: (§1) Morphologically, it causes vacuolation, and the expansion of the cytoplasm of cells, disintegration and aggregation of the nucleus. […] These are considered to inhibit not only the synthesis of ATP but also the actions of mRNA and be involved in the synthesis of RNA and DNA, and the generation of intracellular energy by acting on the metabolism of the intracellular organelle such as rough-surfaced endoplasmic reticulum, smooth-surfaced endoplasmic reticulum, ribosome, Golgi apparatus, etc., and as a result, controlling the metabolism of the cells, influencing the synthesis of proteins/glycoprotein, intracellular lipid metabolism, and movement and transport of ions. […] Morphologically, in the case that cells end up degenerating, the degeneration generally changes first to the nucleus followed by the cytoplasm.

gastric cancer = assay: Administration to human patients, gastric cancer; assay type: in vivo
Description: Patient, gastric cancer had metastasized in the liver; countless cancer cells metastasized and dispersed in the liver.
Gastric cancer was detected as a result of a detailed examination, extirpated soon after the discovery, cancer as large as a head of a fetus was removed. Scattered additionally in the peritoneal cavity: Life expectancy was 3-6 months.
person, metastasized in the pancreas and peritoneum.

[5] = system: periodontal disease bacteria; assay: Control of proliferation of periodontal disease bacteria
[6] = system: lactate dehydrogenases (LDH); assay: Inhibition of lactate dehydrogenase activity of cancer cells; assay type: biochemical
Description: as §1

cancer = assay: Several hundreds of patients suffering from cancer taking CPL; assay type: in vivo, human; conditions: 10-20 g/day
lung cancer = assay: MIRS values in a patient suffering from lung cancer before and after taking CPL; assay type: in vivo, human; conditions: after taking CPL; FIG. 15
Description: In addition, changes in MIRS values in a patient suffering from lung cancer before and after taking CPL.

bacterial diarrhea = assay: Administration to milking bovines, bacterial diarrhea; assay type: in vivo, bovine
Description: In the milking bovines, a bacterial diarrhea started to spread. Initially, four bovines infected by the bacterial diarrhea one after another. […] The bovines fed as usual even in the condition of diarrhea and no decrease in the amount of milk was observed.

baldness = assay: Spray and oral powder, baldness; assay type: in vivo, human; conditions: spray twice a day (10 g in terms of CPL powder) and 10 g/day orally for approximately 50 days
Description: The said spraying agent was sprayed on a bald part of a head.

Cyclic Poly-lactate [CPL]
course of pulmonary cancer metastasis lymphoma [1]: satisfactory progress | fatty acid composition of triglyceride (lipid metabolism system): changes | outcome of diarrhea in calves changing to milk substitute (diarrhea; 20-30 g/day): recovered completely | diarrhea in calves that took CPL (prevention) (diarrhea; 20 g/day for the first 4-5 days): spontaneously cured | time to complete recovery after CPL administration (diarrhea; calves, 20-30 g/day): approximately 3 days | mastitis prevention ([2]; 50 g/day from 3 to 5 days before expected date of delivery): confirmed to play a role in mastitis prevention | delivery of calves ([2]; 50 g/day initiated 5 days before expected date of delivery): smoothly | WBC ([3]; bovine 901 (Screening), 3 May, treatment from 30 April, pretreatment 97): 96 ×10^2 | GOT ([3]; bovine 901 (Screening), 3 May, treatment from 30 April, pretreatment 134): 128 U/I | TCHO ([3]; bovine 901 (Screening), 3 May, treatment from 30 April, pretreatment 255): 266 mg/dL | CPK ([3]; bovine 901 (Screening), 3 May, treatment from 30 April, pretreatment 819): 82 U/I | WBC ([3]; bovine 901 (Screening), 7 May, pretreatment 97): 94 ×10^2 | GOT ([3]; bovine 901 (Screening), 7 May, pretreatment 134): 116 U/I | TCHO ([3]; bovine 901 (Screening), 7 May, pretreatment 255): 245 mg/dL | CPK ([3]; bovine 901 (Screening), 7 May, pretreatment 819): 97 U/I | WBC ([3]; bovine 901 (Screening), 10 May, completion date of treatment, pretreatment 97): 71 ×10^2 | GOT ([3]; bovine 901 (Screening), 10 May, completion date of treatment, pretreatment 134): 115 U/I | TCHO ([3]; bovine 901 (Screening), 10 May, completion date of treatment, pretreatment 255): 286 mg/dL | CPK ([3]; bovine 901 (Screening), 10 May, completion date of treatment, pretreatment 819): 113 U/I | WBC ([3]; bovine 923 (Garget), 3 May, treatment from 30 April, Spectrazol 2-4 May, pretreatment 101): 111 ×10^2 | GOT ([3]; bovine 923 (Garget), 3 May, treatment from 30 April, Spectrazol 2-4 May, pretreatment 123): 107 U/I | TCHO ([3]; bovine 923 (Garget), 3 May, treatment from 30 April, Spectrazol 2-4 May, pretreatment 247): 255 mg/dL | CPK ([3]; bovine 923 (Garget), 3 May, treatment from 30 April, Spectrazol 2-4 May, pretreatment 563): 203 U/I | WBC ([3]; bovine 923 (Garget), 7 May, pretreatment 101): 97 ×10^2 | GOT ([3]; bovine 923 (Garget), 7 May, pretreatment 123): 81 U/I | TCHO ([3]; bovine 923 (Garget), 7 May, pretreatment 247): 208 mg/dL | CPK ([3]; bovine 923 (Garget), 7 May, pretreatment 563): 133 U/I | WBC ([3]; bovine 923 (Garget), 10 May, completion date of treatment, pretreatment 101): 110 ×10^2 | GOT ([3]; bovine 923 (Garget), 10 May, completion date of treatment, pretreatment 123): 107 U/I | TCHO ([3]; bovine 923 (Garget), 10 May, completion date of treatment, pretreatment 247): 259 mg/dL | CPK ([3]; bovine 923 (Garget), 10 May, completion date of treatment, pretreatment 563): 121 U/I | other blood responses such as WBC, GOT, and TCHO ([3]; bovines given CPL): no specific changes | CPK (muscle enzyme) mean level ([3]; group of bovines with markedly high levels of CPK): extremely low | outcome of leukemia (leukemia; 15-20 g/day for 170 days): cured | outcome of leukemia (leukemia; 15 g/day for 5 months): cured | outcome of leukemia (leukemia; 15 g/day for 220 days): cured | recurrence of leukemia (leukemia; for 2 years onwards): No recurrence | examination findings and recurrence of bladder cancer (bladder cancer; male, resection performed 5 times, 20-30 g/day for 50 days): no abnormal findings from examinations, nor a recurrence | course of bladder cancer (bladder cancer; person, 40-50 g/day for 270 days): improved from the terminal stage | need for dialysis [4]: dialysis was not necessary | outcome of cervical malign lymphoma (cervical malign lymphoma): cured | excretion of gas, defecation and amount of urine (uterine/ovarian cancer; person with ileus, 4-6 g/day): increased | ileus symptoms (uterine/ovarian cancer; person, 7 days later): negative | recurrence of ileus symptoms (uterine/ovarian cancer; person, discharged 3 months later): No recurrent ileus symptoms | cancerous pain (uterine/ovarian cancer; person, oral ingestion 15-20 g/day): ameliorated | proliferation of cancer cells (cancer cells): controls the proliferation | cancer blocks metastasized in the liver (gastric cancer; male, gastric cancer metastasized in the liver, CPL for 2 weeks): necrotized | course of terminal inoperable gastric cancer (gastric cancer; person, metastasized in pancreas and peritoneum, 30 g/day for 150 days): progressing satisfactorily | recurrence after extirpation of gastric cancer (gastric cancer; scattered in peritoneal cavity, life expectancy 3-6 months, 10 g/day for 5 months): no sign of a recurrence | controlling the proliferation of periodontal disease bacteria [5]: effective | activity of lactate dehydrogenases (LDH) [6]: inhibits | findings of ameliorated adverse reactions, macrobiotic effects and suggestion of a cure (cancer): observed in the majority | MIRS values in patient suffering from lung cancer (lung cancer): increased significantly | response of bacterial diarrhea (bacterial diarrhea; 50 g/day, 100 g/day of Neothor in combination in severe cases, in most bovines): complete response | amount of milk (bacterial diarrhea; bovines with bacterial diarrhea given 50 g/day): no decrease | hair growth on bald part of head (baldness): hair growth is achieved
